# Legend:
# [1] = test system: isolated pancreatic islets; experiment: Apoptosis by measurement of DNA fragments (Cell Death Detection ELISA) in isolated islets; format: in vivo, rat; conditions: islets of ZDF rats, 10 mg/kg oral, overnight culture in RPMI; vehicle 43.1±9.2%, fa+ 19.9±6.2%
# Procedure: Rat pancreatic islets were prepared by collagenase digestion and density gradient purification. The enzyme collagenase type XI (Sigma Chemical, St. Louis, Mo.) was used for digestion of the pancreas. After an overnight fast, animals were deeply anesthetized and killed. Then, the pancreatic duct was cannulated, and 20 ml of the digestion solution at 37° C. (collagenase 30 mg/ml dissolved in 20 ml Hanks' balanced salt solution [HBSS]) (Sigma Chemical, St. Louis, Mo.) was slowly injected to distend the tissue. After distension, the pancreas was placed into a 20-ml glass beaker containing 5 ml of the digestion solution at 37° C. that was set into a shaking water bath at 37° C. for 8 minutes. After centrifugation at 633 g for 1 min at 4° C., the supernatant was removed and the islets were washed three times with HBSS by centrifugation at 633 g for 1 min at 4° C. For the purification procedure, the islets were resuspended in 4 ml of 80% Histopaque 1.077 (Sigma) and 4 ml HBSS. […] The apoptosis of islet cells was assessed by the Cell Death Detection enzyme-linked immunosorbent assay (ELISA) plus Kit from Roche, according to the procedures recommended by the manufacturer and applied to rat islet experiment. […] At the end of the 5-min incubation, absorbance of samples was read spectrophotometrically at 405 nm. The results were expressed as a percent of internal standard (nucleosomal particles). […]
# NOD mice = experiment: Insulitis development in NOD mice (pancreatic histology); format: in vivo, mouse
# From the text: NOD (non-obese diabetes) mice is an experimental model of spontaneous resembling human Type I (insulin-dependent) diabetes, which results from the progressive islet invasion and beta cells destruction by autoreactive T cells. This spontaneous diabetes model offers a unique opportunity of studying the autoreactive T cells involved in the process of beta cell destruction and of settling preventive strategies before clinical onset of the disease. Non fasted mice were killed two days after the last administration of compounds. Pancreatic glands were excised and processed for conventional histological studies after fixation in Bouin's alcoholic solution. Five μm sections were stained with haematoxylin-eosin as described previously by Thivolet C. H. et al., 1991, Diabetologia, 34, 314-319. The evolution of insulitis was analysed in pancreas. […] State 4 was not observed in 8 weeks old mice, this state appeared at around 9-10 weeks. NOD mice of 4 weeks old have been treated for 4 weeks (5 days/7) with vehicle or GW3965 at 50 mg/kg. Pancreatic histological studies have been carried out as described above.
# pancreatic islets = experiment: Number of harvested pancreatic islets in treated ZDF rats; format: in vivo, rat; conditions: 10 mg/kg oral for 3 weeks, vehicle 51±13, fa+ 120±28, mean±SEM
# Procedure: Male ZDF fa/fa and ZDF fa+ rats were obtained from Genetic Models (Indianapolis, Ind.), at the age of 6 weeks and used in the experiments at 12 weeks of age, after 3 weeks of oral treatment with vehicle or GW3965 (10 mg/kg). Compounds were given once daily (at 17 h) via oral gavage. At the time of their use, the ZDF fa/fa rats weighed 310-350 g, whereas the age-matched ZDF fa+ rats weighed 245-285 g. ZDF fa+ and ZDF fa/fa animals had free access to diabetogenic chow (Purina 5008). Animals were housed 5 per cage in a temperature and humidity-controlled room with a 12/12-h light-dark cycle. Blood samples were taken 16 h after compound administration via the tail vein and measured on a Konelab 300 (Labsystem) clinical chemistry analyzer. Rat pancreatic islets were prepared by collagenase digestion and density gradient purification. The enzyme collagenase type XI (Sigma Chemical, St. Louis, Mo.) was used for digestion of the pancreas. After an overnight fast, animals were deeply anesthetized and killed. Then, the pancreatic duct was cannulated, and 20 ml of the digestion solution at 37° C. (collagenase 30 mg/ml dissolved in 20 ml Hanks' balanced salt solution [HBSS]) (Sigma Chemical, St. Louis, Mo.) was slowly injected to distend the tissue. […]
smiles,measurement,setting,value
O=C(O)Cc1cccc(OCCCN(Cc2cccc(C(F)(F)F)c2Cl)CC(c2ccccc2)c2ccccc2)c1 [GW3965],"apoptosis, DNA fragments as percent of internal standard",[1],34.0±7.5%
same,normal islets in the pancreas,"NOD mice; NOD mice of 4 weeks old, 50 mg/kg for 4 weeks (5 days/7), control 32%",94%
same,insulitis (lymphocytes infiltration),"NOD mice; NOD mice, 50 mg/kg for 4 weeks, pancreatic sections",appears protected against the lymphocytes infiltration
same,number of harvested pancreatic islets,pancreatic islets,80±16 islets/rat
